Results as given in PMC3828334, “Tumor Cell Death Mediated by Peptides That Recognize Branched Intermediates of DNA Replication and Repair” (PLoS ONE, 2013).
Read-outs that look alike come from different tables or passages of the source. Non-standard residues stand in square brackets, D forms with d. Residues, ends and D or L forms follow the SMILES beside them.

Tests used:
PC3 cells [1] = conditions: for cell survival: MTT
Experimental: 20,000 PC3 cells were plated overnight in 96 well plates (Costar) at a concentration of 200,000 cells/ml. They are treated with the peptides, doxorubicin, docetaxel alone, or in combination for different time period incubation and the cell viability was determined by MTT assay as described. The percentage survival of the cells with different treatments was calculated using DMSO-vehicle control-treated cells as the standard.

HeLa cells = assay: TUNEL assay, HeLa, with z-VAD-fmk or z-FA-fmk; assay type: cell-based
Experimental: 600,000 PC3 cells or 500,000 HeLa cells were plated in 60-mm dishes or 6-well plates respectively to allow them to attach overnight at 37°C with 5% CO2. PC3 cells were subsequently treated with appropriate treatments for 24, 36 and 48 h while HeLa cells were treated with 1 µl of either the caspase inhibitor z-VAD-fmk or z-FA-fmk (both from Biovision), containing appropriate treatments, for 24 h. The cells were fixed with 4% paraformaldehyde for 30 min and permeabilized with 0.1% Triton X-100 in 0.1% sodium citrate buffer for 3 mins. Labeled dUTP were added along with the terminal deoxynucleotidyl transferase dUTP nick end labeling (TUNEL) (TUNEL kit from Roche) as described in the kit. Samples were analyzed using a Becton Dickinson FACS Canto flow cytometer as specified above.

[2] = system: Htog1 cells (variant of HeLa cells); assay: Cytochrome C release / TMRE assay for apoptosis; assay type: cell-based; conditions: 150 µM etoposide, 24 h, positive control
Experimental: 200,000 Htog1 cells (variant of HeLa cells, a generous gift from Drs. Terrence Frey and Maria Guo) were seeded on cover slips mounted on 35 mm microwell petri dishes (Mattek Corp, Ashland, MA) with DMEM supplemented with 10% FBS and allowed to attach overnight at 37°C in 5% CO2. The media was replaced with 1 ml of the appropriate treatment and incubated for 24 h. After 23 h of treatment, 50 µM tetramethyl rhodamine ethyl ester perchlorate (TMRE) solution was added to each well (final concentration 50 nM) and incubated for the remaining hour. Cytochrome C release and loss of TMRE staining were determined in Z-series images acquired using a Leica TCS SP2 inverted confocal microscope. GFP was excited using 488 nm wavelength from an Ar/Kr laser attenuated to 33%, and the emitted fluorescence detected at 497–553 nm. TMRE fluorescence was excited using a 543 nm wavelength from an Ar/Kr laser attenuated to 35%, and the emitted fluorescence detected at 555–620 nm. Each cell was analyzed for release of GFP (GFP channel), loss of mitochondrial membrane potential (TMRE loss) or morphological abnormalities associated with apoptosis, and the % cells positive for each hallmark was calculated for the various treatments.

Chk2 in PC3 cells = assay: Phospho-Chk2 by flow cytometry; assay type: cell-based; conditions: PC3, 1 µM doxorubicin on its own, 48 h
Experimental: They were subsequently treated with either 50-200 μM […] or 50-100 μM […] or 0.5-1 μM doxorubicin or combination treatment for 0, 12, 24, 36 and 48 h. […] Samples were analyzed using a Becton Dickinson FACS Canto flow cytometer at a forward scatter voltage of 25 V, side-scatter voltage of 400 V, and FITC channel at a voltage of 400 V.

[3] = system: GRP78 promoter in HeLa cells; assay: Luciferase reporter assay for ER stress; assay type: cell-based; conditions: positive control
Experimental: HeLa cells were transfected with either either 15 µg of plasmid DJT208, carrying the GRP78 promoter (pGRP78) driving the ER-stress response elements ERSE 1, ERSE 2 and ERSE 3 upstream of the luciferase gene, or 15 µg of the plasmid GL2P, carrying the luciferase gene driven by the SV40 promoter (pSV40). All cells were also co-transfected with 10 µg of the PB1 plasmid, carrying the β-galactosidase reporter transcribed by the SV40 promoter, as a transfection control. [The plasmids were generous gifts from Dr. Peter Belmont from Christopher Glembotski's Lab in SDSU]. After 24 h the cells were treated with increasing concentrations of wrwycr (100, 150 and 200 µM) for 24 h and the luciferase activity was measured using an OptocompII Luminometer. Tunicamycin (TM), a known inducer of ER stress, was used as a positive control for the experiment ER stress was calculated as the fold increase of luciferase gene expression from the GRP78 promoter over that from the SV40 promoter of pGL2P for the different concentrations of the peptide over DMSO, which is the solvent for the peptide, or over the media in the case of TM.

LnCAP cells = assay type: cell-based; conditions: 48 h
DuPro-1 cells = assay type: cell-based; conditions: 48 h
PC3 cells [4] = assay: HPLC determination of intracellular and extracellular peptide concentration; assay type: in vitro ADME
Experimental: 500,000 HeLa or 400,000 PC3 cells were plated in each well of the 6-well dishes (Costar) and allowed to attach overnight at 37°C with 5% CO2. The cells were treated with d-wrwycr or d-wrwyrggrywrw for 24 or 48 h respectively. For PC3 cells media along with the dodecamer treatments were collected for a separate run in HPLC. PC3 or HeLa cells were lysed using a lysis buffer containing 0.71% NP40, 71 mM Tris (pH 7.5), 0.71 mM EDTA and 212 mM NaCl on ice for 5–10 mins. The lysates were centrifuged at 13,000 g for 7 mins to clear cellular debris. The samples were analyzed by HPLC (Beckman Coulter System Gold BioEssential 126/168) using a Phenomonex Jupiter 4 micron Proteo 90A C18 hydrophobic column to detect the peptides within the cells. […] The intracellular concentration was calculated by taking into account the area under the peptide peaks, using the integration function of 32 Karat software (Beckman Coulter, Fullerton, California), and comparing them to the standard curve of the peptide. […] The extracellular concentration of wrwyrggrywrw was calculated by running the media similarly in HPLC and comparing them to the standard curve of wrwyrggrywrw.
To investigate whether peptide wrwycr or wrwyrggrywrw accumulated within cells, the concentration of the unlabeled and unmodified peptides was directly determined using an HPLC-based method. […]

Q: `CC(=O)O[C@@]12CO[C@@H]1C[C@H](O)[C@@]1(C)C(=O)[C@H](O)C3=C(C)[C@@H](OC(=O)[C@H](O)[C@@H](NC(=O)OC(C)(C)C)c4ccccc4)C[C@@](O)([C@@H](OC(=O)c4ccccc4)[C@H]21)C3(C)C` [docetaxel] was tested. Which cell survival (PC3 cells [1]; PC3, 10 nM docetaxel, 48 h) did it give?
A: 90%

Q: What about the cell survival (PC3 cells [1]; PC3, 50 nM docetaxel, 48 h) of the same molecule?
A: 80%

Q: For `COc1cc([C@@H]2c3cc4c(cc3[C@@H](O[C@@H]3O[C@@H]5CO[C@@H](C)O[C@H]5[C@H](O)[C@H]3O)[C@H]3COC(=O)[C@H]23)OCO4)cc(OC)c1O` [etoposide, reference compound], which TUNEL-positive cells (HeLa cells; 1.3 µM etoposide alone) is on record?
A: < 2%

Q: What about the “cytochrome C release and mitochondrial membrane potential” value [2] of the same molecule?
A: loss of mitochondrial membrane potential and release of cytC

Q: What does the source list for `COc1cccc2c1C(=O)c1c(O)c3c(c(O)c1C2=O)C[C@@](O)(C(=O)CO)C[C@@H]3O[C@H]1C[C@H](N)[C@H](O)[C@H](C)O1` [doxorubicin]?
A: cell survival (PC3 cells [1]; PC3, 1 µM doxorubicin alone, time course, evident at 36 h (Figure 9B)): 80%; cell survival (PC3 cells [1]; PC3, 2.5 µM doxorubicin alone, 48 h): 73%; cellular population with activated Chk2 (Chk2 in PC3 cells): 50%

Q: With Tunicamycin as the molecule, how does the “pGRP78 Units” value ([3]; concentration not given) read?
A: 425255±16205

Q: And the “pSV40 Units” value ([3]; concentration not given)?
A: 4606±362.1

Q: And the pGRP78/pSV40 ([3]; over the media)?
A: 20.0±1.36

Q: What about the “pGRP78 Fold change” value ([3]; over the media) of the same molecule?
A: 7.9±0.09

Q: What about the “pSV40 Fold change” value ([3]; over the media) of the same molecule?
A: 0.4±0.02

Q: Which TUNEL-positive cells (HeLa cells; 400 mM sorbitol with mock inhibitor z-FA-fmk) does the source give for `OC[C@@H](O)[C@@H](O)[C@H](O)[C@@H](O)CO` [sorbitol] here?
A: ~80%

Q: What about the TUNEL-positive cells (HeLa cells; 400 mM sorbitol with z-VAD-fmk inhibitor) of the same molecule?
A: < 10%

Q: With `N=C(N)NCCC[C@@H](NC(=O)CNC(=O)CNC(=O)[C@@H](CCCNC(=N)N)NC(=O)[C@@H](Cc1ccc(O)cc1)NC(=O)[C@@H](Cc1c[nH]c2ccccc12)NC(=O)[C@@H](CCCNC(=N)N)NC(=O)[C@H](N)Cc1c[nH]c2ccccc12)C(=O)N[C@H](Cc1ccc(O)cc1)C(=O)N[C@H](Cc1c[nH]c2ccccc12)C(=O)N[C@H](CCCNC(=N)N)C(=O)N[C@H](Cc1c[nH]c2ccccc12)C(N)=O` [wrwyrggrywrw] (H-[dW][dR][dW][dY][dR]GG[dR][dY][dW][dR][dW]-NH2) as the molecule, how does the IC50 (PC3 cells [1]; 48 h) read?
A: 50 µM

Q: What about the IC50 (LnCAP cells) of the same molecule?
A: 25 µM

Q: What about the IC50 (DuPro-1 cells) of the same molecule?
A: 25 µM

Q: And the intracellular concentration (PC3 cells [4]; 25 µM input dose, PC3 cells, 48 h, cell lysate soluble fraction, HPLC C18 against standard curve, cell volume 1.6–2.4 pl)?
A: ~1 mM

Q: And the “peptide in the media less than input” value (PC3 cells [4]; media with 10% FBS after treatment of PC3 cells, several input concentrations, HPLC (Figure 2Aii))?
A: 5–10%

Q: Which TUNEL-positive cells (HeLa cells; 10 mM hydroxyurea alone) does the source give for `NC(=O)NO` [hydroxyurea] here?
A: < 2%
